For this assay, the target named is Aldo-keto reductase family 1 member B1 (Homo sapiens, UniProt P15121). Kind of assay: In Vitro Aldose Reductase Inhibition Assay. Particulars: pH 7; 24 °C. The procedure: The activity of the enzyme was determined spectrophotometrically by monitoring the change in absorbance at 340 nm, which is due to the disappearance of NADPH. Inhibition by test compound was measured as the percentage decrease in the rate of NADPH oxidation as compared to a sample without test compound. The determination of the IC50 values was performed by using linear regression analysis of the log dose response curve.

This is an account of results in BindingDB's records for doi:10.1021/jm034065z (Pfizer, 2003).

pIC50: −log10 of the molar value.

Consider `O=c1ccc(S(=O)(=O)c2cc3ccccc3o2)n[nH]1`, for which the pIC50 (in general, the IC50 on a negative log10 scale, so that one unit is a factor of ten) was 6.82.

For the compound `O=c1ccc(S(=O)(=O)c2cc3cc(Cl)ccc3o2)n[nH]1`, the pIC50 is 7.60. Against the preceding compound, the pIC50 is 0.78 log units higher.
